Experimental data as given in US9253983B2, “Triazole compound and use thereof” (KUREHA CORPORATION, priority 2011, dated 2016).

Legend:
Glomerella cingurata = test: Test 1 for antifungal effect, plate medium: G.c; format: cell-based; details: PDA plate medium
Method: (§1) Compound (1-1a) or Compound (1-2a) was dissolved in dimethyl sulfoxide, and the resulting solution was added to a PDA medium (potato dextrose-agar medium) at about 60° C. The medium and the solution were mixed thoroughly in a conical flask, poured into a petri dish, and allowed to solidify. In this way, a plate medium containing Compound (1-1a) or Compound (1-2a) at a certain concentration was prepared.
(§2) Meanwhile, test microorganisms cultured on a plate medium in advance were cut out with the use of a cork borer 4 mm in diameter, and were inoculated onto the compound-containing plate medium. After the inoculation, the microorganisms were cultured at their optimum growth temperatures (for example, refer to LIST OF CULTURES 1996 microorganisms 10th edition, Institute for Fermentation (foundation)) for 1 day to 7 days, and their growth was determined by measuring the diameter of their flora. The extent of growth of the microorganisms on the compound-containing plate medium was compared with that of microorganisms on a plate medium where no compound was added, and mycelial growth inhibition rate was calculated by the following equation: R=100(dc−dt)/dc where R is mycelial growth inhibition rate (%), dc is the flora diameter in untreated plate, and dt is the flora diameter in plate treated with the compound.
(§3) A larger antifungal index indicates a better antifungal effect.

Puccinia recondita [1] = test: Controlling effect on wheat brown rust (leaf rust) by foliage spray treatment (Tests 1 and 2); format: in vivo; details: foliage spray 0.8 mg/L, 1,000 L/ha, 11 days after inoculation
Method: The wheat plants had been grown in square plastic pots (6 cm×6 cm). The suspensions were left to dry, and inoculated with spores of Puccinia recondita (adjusted at 200 spores per field of vision, Gramin S was added at 60 ppm) by spraying, and kept at 25° C. in a high humidity environment for 48 hours. After that, the plants were kept in a greenhouse. 11 days after the inoculation, the lesion degree of the wheat leaf rust was examined in accordance with the criteria shown in Table 4, and the protective values were calculated by the following equation. Protective value (%)=(1−Average lesion degree in sprayed plot/Average lesion degree in unsprayed plot)×100
The wheat plants had been grown in square plastic pots (6 cm×6 cm). The leaves were air-dried, and inoculated with spores of Puccinia recondita (adjusted at 200 spores per field of vision, Gramin S was added at 60 ppm) by spraying, and kept at 25° C. in a high humidity environment for 48 hours. After that, the plants were kept in a greenhouse. 11 days after the inoculation, the lesion degree of the wheat leaf rust was examined, and the protective values were calculated as were in Experiment Example 2.

Puccinia recondita [2] = test: Efficacy of seed treatment on wheat brown rust; format: in vivo; details: wheat seed treatment 20 g ai/100 kg seeds, 12 days after inoculation
Method: A pot experiment was performed to evaluate the efficacy of seed treatment in controlling wheat leaf rust. Compound (1-1a) and Compound (1-2a), each of which was dissolved in DMSO to make up such a concentration that the seeds would be treated in treatment amount of 20 g ai/100 kg seeds, were each applied to wheat seeds in a vial, and thereafter 8 wheat seeds were sowed on an 80-cm^2 pot. The pot was kept in a greenhouse with water supplied to its bottom. 21 days after the sowing, the wheat seeds were inoculated with Puccinia recondita, and kept in a wet box for 2 days. After that, the pot was again kept in the greenhouse with water supplied to its bottom. 12 days after the inoculation, the percentage of affected area was found, and the protective value was calculated by the following equation. Protective value (%)=(1−(Percentage of affected area in treated region/Percentage of affected area in untreated region))×100

Sclerotinia sclerotiorum = test: Test 1 for antifungal effect, plate medium: S.s; format: cell-based; details: PDA plate medium
Method: as §1, §2, §3

Gaeumannomyces graminis = test: Test 1 for antifungal effect, plate medium: G.g; format: cell-based; details: PDA plate medium
Method: as §1, §2, §3

Ustilago nuda = test: Test 2 for antifungal effect, plate medium: U.n; format: cell-based; details: PDA plate medium
Method: as §1, with “(1-1b)” for “(1-1a)”, “(1-2b)” for “(1-2a)”
(§4) Meanwhile, test microorganisms cultured on a plate medium in advance were cut out with the use of a cork borer 4 mm in diameter, and were inoculated onto the compound-containing plate medium. After the inoculation, the pathogens were cultured at their optimum growth temperatures (for example, refer to LIST OF CULTURES 1996 microorganisms 10th edition, Institute for Fermentation (foundation)) for 1 day to 7 days, and their growth was determined by measuring the diameter of their flora. The extent of growth of the pathogens on the compound-containing plate medium was compared with that of pathogens on a plate medium where no compound was added, and mycelial growth inhibition rate was calculated as in Experiment Example 10. Note that, in Experiment Example 11, controls used in the antifungal effect tests are Compound (1-1a) and Compound (1-2a) instead of Compound (1-1b) and Compound (1-2b), respectively.
(§5) The results were rated on a 1-to-5 scale as in Experiment Example 10.

Penicillium italicum = test: Test 2 for antifungal effect, plate medium: P.i; format: cell-based; details: PDA plate medium
Method: as §1, with “(1-1b)” for “(1-1a)”, “(1-2b)” for “(1-2a)”
as §4, §5

Phaeosphaeria nodorum = test: Test 1 for antifungal effect, plate medium: P.n; format: cell-based; details: PDA plate medium
Method: as §1, §2, §3

Gibberella fujikuroi = test: Test 1 for antifungal effect, plate medium: G.f; format: cell-based; details: PDA plate medium
Method: as §1, §2, §3

SMILES | Antifungal index (mycelial growth inhibition rate) (Glomerella cingurata; 0.16 mg/L) | Antifungal index (mycelial growth inhibition rate) (Glomerella cingurata; 0.31 mg/L) | Antifungal index (mycelial growth inhibition rate) (Glomerella cingurata; 0.63 mg/L) | Antifungal index (mycelial growth inhibition rate) (Glomerella cingurata; 1.25 mg/L) | Antifungal index (mycelial growth inhibition rate) (Glomerella cingurata; 2.50 mg/L) | Protective value (%) (Puccinia recondita [1]) | Antifungal index (mycelial growth inhibition rate) (Sclerotinia sclerotiorum; 0.16 mg/L) | Antifungal index (mycelial growth inhibition rate) (Sclerotinia sclerotiorum; 0.31 mg/L) | Antifungal index (mycelial growth inhibition rate) (Sclerotinia sclerotiorum; 0.63 mg/L) | Antifungal index (mycelial growth inhibition rate) (Sclerotinia sclerotiorum; 1.25 mg/L) | Antifungal index (mycelial growth inhibition rate) (Sclerotinia sclerotiorum; 2.50 mg/L) | Antifungal index (mycelial growth inhibition rate) (Gaeumannomyces graminis; 0.16 mg/L) | Antifungal index (mycelial growth inhibition rate) (Gaeumannomyces graminis; 0.31 mg/L) | Antifungal index (mycelial growth inhibition rate) (Gaeumannomyces graminis; 0.63 mg/L) | Antifungal index (mycelial growth inhibition rate) (Gaeumannomyces graminis; 1.25 mg/L) | Antifungal index (mycelial growth inhibition rate) (Gaeumannomyces graminis; 2.50 mg/L) | Antifungal index (mycelial growth inhibition rate) (Ustilago nuda; 0.04 mg/L) | Antifungal index (mycelial growth inhibition rate) (Ustilago nuda; 0.08 mg/L) | Antifungal index (mycelial growth inhibition rate) (Ustilago nuda; 0.16 mg/L) | Antifungal index (mycelial growth inhibition rate) (Ustilago nuda; 0.31 mg/L) | further results
CC1(CCl)CCC(Cc2ccc(Cl)cc2)C1(O)Cn1cncn1 (single isomer, unassigned) [Compound (1-1a), (1,2-cis, 1,5-cis)-5-(4-chlorobenzyl)-2-chloromethyl-2-methyl-1-(1H-1,2,4-triazole-1-ylmethyl)cyclopentanol] | 5 (90% or greater) | 5 (90% or greater) | 5 (90% or greater) | 5 (90% or greater) | 5 (90% or greater) | 95 | 5 (90% or greater) | 5 (90% or greater) | 5 (90% or greater) | 5 (90% or greater) | 5 (90% or greater) | 3 (Less than 80% but not less than 70%) | 5 (90% or greater) | 5 (90% or greater) | 5 (90% or greater) | 5 (90% or greater) | 1 (Less than 60%) | 1 (Less than 60%) | 1 (Less than 60%) | 2 (Less than 70% but not less than 60%) | Protective value (%) (Puccinia recondita [2]): 90%; Antifungal index (mycelial growth inhibition rate) (Ustilago nuda; 0.63 mg/L): 3 (Less than 80% but not less than 70%); Antifungal index (mycelial growth inhibition rate) (Ustilago nuda; 1.25 mg/L): 4 (Less than 90% but not less than 80%); Antifungal index (mycelial growth inhibition rate) (Penicillium italicum; 0.04 mg/L): 1 (Less than 60%); Antifungal index (mycelial growth inhibition rate) (Penicillium italicum; 0.08 mg/L): 4 (Less than 90% but not less than 80%); Antifungal index (mycelial growth inhibition rate) (Penicillium italicum; 0.16 mg/L): 4 (Less than 90% but not less than 80%); Antifungal index (mycelial growth inhibition rate) (Penicillium italicum; 0.31 mg/L): 5 (90% or greater); Antifungal index (mycelial growth inhibition rate) (Penicillium italicum; 0.63 mg/L): 5 (90% or greater); Antifungal index (mycelial growth inhibition rate) (Penicillium italicum; 1.25 mg/L): 5 (90% or greater); Antifungal index (mycelial growth inhibition rate) (Phaeosphaeria nodorum; 0.16 mg/L): 2 (Less than 70% but not less than 60%); Antifungal index (mycelial growth inhibition rate) (Phaeosphaeria nodorum; 0.31 mg/L): 3 (Less than 80% but not less than 70%); Antifungal index (mycelial growth inhibition rate) (Phaeosphaeria nodorum; 0.63 mg/L): 5 (90% or greater); Antifungal index (mycelial growth inhibition rate) (Phaeosphaeria nodorum; 1.25 mg/L): 5 (90% or greater); Antifungal index (mycelial growth inhibition rate) (Phaeosphaeria nodorum; 2.50 mg/L): 5 (90% or greater); Antifungal index (mycelial growth inhibition rate) (Gibberella fujikuroi; 0.16 mg/L): 5 (90% or greater); Antifungal index (mycelial growth inhibition rate) (Gibberella fujikuroi; 0.31 mg/L): 5 (90% or greater); Antifungal index (mycelial growth inhibition rate) (Gibberella fujikuroi; 0.63 mg/L): 5 (90% or greater); Antifungal index (mycelial growth inhibition rate) (Gibberella fujikuroi; 1.25 mg/L): 5 (90% or greater); Antifungal index (mycelial growth inhibition rate) (Gibberella fujikuroi; 2.50 mg/L): 5 (90% or greater)
CC1(CCl)CCC(Cc2ccc(F)cc2)C1(O)Cn1cncn1 (single isomer, unassigned) [Compound (1-2b), (1,2-cis, 1,5-cis)-5-(4-fluorobenzyl)-2-chloromethyl-2-methyl-1-(1H-1,2,4-triazole-1-ylmethyl)cyclopentanol] | 3 (Less than 80% but not less than 70%) | 4 (Less than 90% but not less than 80%) | 5 (90% or greater) | 5 (90% or greater) | 5 (90% or greater) | 80 | 3 (Less than 80% but not less than 70%) | 5 (90% or greater) | 5 (90% or greater) | 5 (90% or greater) | 5 (90% or greater) | 1 (Less than 60%) | 1 (Less than 60%) | 4 (Less than 90% but not less than 80%) | 5 (90% or greater) | 5 (90% or greater) | 1 (Less than 60%) | 1 (Less than 60%) | 2 (Less than 70% but not less than 60%) | 4 (Less than 90% but not less than 80%) | Antifungal index (mycelial growth inhibition rate) (Ustilago nuda; 0.63 mg/L): 4 (Less than 90% but not less than 80%); Antifungal index (mycelial growth inhibition rate) (Ustilago nuda; 1.25 mg/L): 5 (90% or greater); Antifungal index (mycelial growth inhibition rate) (Penicillium italicum; 0.04 mg/L): 1 (Less than 60%); Antifungal index (mycelial growth inhibition rate) (Penicillium italicum; 0.08 mg/L): 4 (Less than 90% but not less than 80%); Antifungal index (mycelial growth inhibition rate) (Penicillium italicum; 0.16 mg/L): 5 (90% or greater); Antifungal index (mycelial growth inhibition rate) (Penicillium italicum; 0.31 mg/L): 5 (90% or greater); Antifungal index (mycelial growth inhibition rate) (Penicillium italicum; 0.63 mg/L): 5 (90% or greater); Antifungal index (mycelial growth inhibition rate) (Penicillium italicum; 1.25 mg/L): 5 (90% or greater); Antifungal index (mycelial growth inhibition rate) (Phaeosphaeria nodorum; 0.16 mg/L): 1 (Less than 60%); Antifungal index (mycelial growth inhibition rate) (Phaeosphaeria nodorum; 0.31 mg/L): 1 (Less than 60%); Antifungal index (mycelial growth inhibition rate) (Phaeosphaeria nodorum; 0.63 mg/L): 2 (Less than 70% but not less than 60%); Antifungal index (mycelial growth inhibition rate) (Phaeosphaeria nodorum; 1.25 mg/L): 3 (Less than 80% but not less than 70%); Antifungal index (mycelial growth inhibition rate) (Phaeosphaeria nodorum; 2.50 mg/L): 5 (90% or greater); Antifungal index (mycelial growth inhibition rate) (Gibberella fujikuroi; 0.16 mg/L): 3 (Less than 80% but not less than 70%); Antifungal index (mycelial growth inhibition rate) (Gibberella fujikuroi; 0.31 mg/L): 4 (Less than 90% but not less than 80%); Antifungal index (mycelial growth inhibition rate) (Gibberella fujikuroi; 0.63 mg/L): 5 (90% or greater); Antifungal index (mycelial growth inhibition rate) (Gibberella fujikuroi; 1.25 mg/L): 5 (90% or greater); Antifungal index (mycelial growth inhibition rate) (Gibberella fujikuroi; 2.50 mg/L): 5 (90% or greater)
